Molecules are shown by their SMILES.

For orientation: melting point means the temperature, or range, at which the solid turns liquid. Compound `CON=C(C(=O)OC)c1ccccc1C#CC(=O)c1ccccc1` came in with a melting point of 89 to 94 °C.

In turn, `Clc1cccc(N2CCN(CCCOc3ccc4cn[nH]c4c3)CC2)c1Cl` gave a melting point of 159 to 161 °C.

In turn, `CCCc1cc(Cl)c2occ(C)c2c1O` registered a melting point of 49 to 50 °C.

In turn, `CCOC(=O)C(=O)Nc1ccc(Cl)c(C#N)c1` showed a melting point of 182 to 183 °C.

On to `NC(=S)NCCSCc1c[nH]cn1`, for which the melting point lay within 135 to 137 °C.

For the compound `COC(=O)c1ccccc1-c1ccc(CNc2nc(Cl)nc3ccccc23)cc1`, the melting point was 75 to 90 °C.

The compound `COc1ccc(C2=NN(c3ccc(C(C)(C)C)cc3)C(=O)[C@H]3CC=CC[C@@H]23)cc1OC` (relative stereo) showed a melting point of 197 to 199 °C.

On to `CN(C)CCNC(=S)SC(C)(C)[C@H](NC(=O)c1ccc(Cl)cc1)C(=O)O`, for which the melting point fell in the range of 142 to 143 °C.

`CC1=Cc2cc(Br)ccc2S1(=O)=O` came in with a melting point of 149 to 151 °C.

Consider `Oc1ccc(-c2cc3c(Br)c(O)cc(Br)c3o2)cc1`, for which the melting point lay within 215 to 217 °C.

For the compound `O=C1CC(c2cccs2)=Nc2ccc(-c3ccc(=O)[nH]c3)cc2N1`, the melting point is over 250 °C.

As for `CC1(C)C(=O)C(C)(C)c2cc(C(F)CN3CCN(c4nsc5ccccc45)CC3)ccc21` (centres undefined), the melting point is 64 to 73 °C.

`COc1ccc(Cl)cc1C1=NC(C)(C)CO1` showed a melting point of 50 to 51 °C.

`C=CCn1cc(C(O)(c2ccc3c(cnn3-c3ccc(F)cc3)c2)C(F)(F)F)c2ccn(C)c(=O)c21` (centres undefined): the melting point lay within 91 to 93 °C.

With `CC(C)(C)OCc1cc(Oc2ccc(C(F)(F)F)cc2Cl)ccc1[N+](=O)[O-]`, the melting point was 75 to 78 °C.

`O=c1ncc(Br)cn1CC(O)C(Cl)(Cl)Cl` (centres undefined) gave a melting point of 210 to 212 °C.

`CC#CCOc1ccc(S(=O)(=O)NC(C(=O)NO)C(C)(C)SCCN2CCOCC2)cc1` (centres undefined): the melting point is 72 °C.

As for `Clc1ccc(Nc2nnc(Cc3ccncc3)c3cccnc23)cc1`, the melting point was in the range of 196 to 197 °C.

As to `O=C(NC(=O)c1c(F)cccc1F)Nc1ccc(SC(F)(F)F)cc1F`, the melting point lay within 173 to 175 °C.

The compound `Cc1cc(Oc2cccc(C(F)(F)F)c2)nn1C(=O)Nc1ccccc1Cl` displayed a melting point of 84 to 86 °C.

With `CC(C)(CCCCCCCCCCC(C)(C)C(Cl)(Cl)C(=O)O)C(Cl)(Cl)C(=O)O`, the melting point was found to be 154 °C.

In turn, `Cn1nc(CO)cc1-c1ccccc1` returned a melting point of 95 to 99 °C.

In turn, `CCOC(=O)C1C(C#N)C1(C)C` (centres undefined) showed a melting point of 69 °C.

`Nc1c(Nc2ccc(O)cc2)ncnc1-c1ccc(C(F)(F)F)cc1F` showed a melting point of 194 to 196 °C.

Compound `CCCCCCSc1ncnc2c1ncn2C1CC(F)C(CO)O1` (centres undefined) had a melting point of 46 to 49 °C.

In turn, `Cc1ccc2nc(C)n(C3CCC(=O)NC3=O)c(=O)c2c1` (centres undefined) showed a melting point of 270 to 272 °C.

In the case of `CCSC1=CCC2C3CCC4=CC(=O)C=CC4(C)C3(F)C(OC(C)=O)CC12C` (centres undefined), the melting point lay in the range of 211 to 215 °C.

On to `Cc1cc(Oc2c(Cl)cc(C(F)(F)F)cc2[N+](=O)[O-])nn1C(=O)OC(C)(C)C`, for which the melting point is 119 to 121 °C.

Take `Clc1cccc(-c2nc3cccc(NCc4ccccn4)c3o2)c1`: the melting point was 115 to 116 °C.

`CC(=O)Nc1ccc(C=C(C(=O)C2CC2)C(=O)C2CC2)cc1`: the melting point fell in the range of 166 to 167 °C.

The compound `CCOC(=O)/C(CCO)=C(\c1ccc(Cl)cc1)c1ccc(S(C)(=O)=O)cc1` had a melting point of 128 °C.

On to `O=C(O)c1ccc(C2CCNCC2)cc1`, for which the melting point was over 270 °C.

As for `CN1CCSC1=NC(=S)Nc1ccccc1`, the melting point lay within 169 to 170 °C.

The compound `CC1Cc2cc3c(cc2C(c2ccc([N+](=O)[O-])cc2)=NN1C(=O)CBr)OCO3` (centres undefined) showed a melting point of 183 to 186 °C.

For `CCCN(c1c([O-])[c+](N(CCC)C2CC(C)(C)NC(C)(C)C2)[c+]1[O-])C1CC(C)(C)NC(C)(C)C1`, the melting point fell in the range of 198 to 199 °C.

Consider `COc1cc2c(cc1Nc1ncc(Cl)c(Nc3ccc(N4CCOCC4)cc3OC)n1)CCN(CC(=O)N1CCOCC1)CC2`, for which the melting point is 189 to 191 °C.

Compound `CC(C)NC(=O)Nc1ccc(-c2ccnc3c(C(=O)c4cccs4)cnn23)s1` registered a melting point of 162 to 165 °C.

`Nc1nc2ccccc2n1-c1cccc(-c2nccs2)c1` displayed a melting point of 224 to 226 °C.

For the compound `CCc1noc2c(Cl)c3c(cc12)CC(C(=O)O)O3` (centres undefined), the melting point fell in the range of 213 to 215 °C.

In turn, `Brc1ccc2c(CCN3CCCCC3)c(-c3ccccc3)[nH]c2c1` gave a melting point of over 230 °C.

`COc1cccc(CNc2nc(Cl)nc3c2nc(Br)n3C(C)C)c1` returned a melting point of 123 to 125 °C.

On to `c1ccc2c(c1)Cn1ncnc1-2`, for which the melting point was in the range of 116 to 117 °C.

Turning to `CCn1cc(C(=O)O)c(=O)c2cc(F)c(N3CC4CC3CN4)c(F)c21` (centres undefined), the melting point was 233 to 236 °C.

`O=C(CN1CCC(Cc2ccc(F)cc2)CC1)Nc1ccc2c(c1)OCC(=O)N2` gave a melting point of 209 to 211 °C.

In turn, `CCCCCCCCSC(=O)CS(=O)(=O)Nc1c(C(C)C)cccc1C(C)C` showed a melting point of 51 to 52 °C.

Regarding `O=C(OCC(Cl)(Cl)Cl)N1CCC(C2c3cccc4c3N(CC4)c3ccccc3N2C(=O)OCC(Cl)(Cl)Cl)CC1` (centres undefined), the melting point fell in the range of 202 to 205 °C.

With `CC(C)c1nc(CNS(C)(=O)=O)n(C)c1Sc1cc(Cl)cc(Cl)c1`, the melting point was in the range of 116 to 118 °C.

`N[C@H](C(=O)O)c1ccc(OCCOC2CCCCC2)cc1` yielded a melting point of 219 to 220 °C.

Take `C=CCOc1cc(C(O)(C(F)(F)F)C(F)(F)F)cc2c(C)cc(=O)[nH]c12`: the melting point lay in the range of 214 to 216 °C.

`C=CCOc1cc(C=CNC(=O)OC)ccc1OCC(O)CNC(C)C` (centres undefined) had a melting point of 91 to 92 °C.

Regarding `CCCCCCCCC=CCCCCCCCCCCCC(=O)NCCOC(C)=O`, the melting point is 51 °C.

As to `CCCc1c2nc(C(=O)OC)cc(N)c2cc2c(=O)cc(C(=O)OCC)oc12`, the melting point was in the range of 267 to 270 °C.

The compound `Cc1c(NC(=O)c2ccc(OC[C@@H]3CCCO3)cc2)ccc2cc(CNC3CCCC3)[nH]c12` displayed a melting point of 159 to 163 °C.

In turn, `CCOC(=O)c1ccc(-c2ccc(OCCNC3CC3)c(-c3ccc4c(c3)C(C)(C)CCC4(C)C)c2)cc1` had a melting point of 141 °C.

Regarding `O=C(O)[C@@]12C[C@@H](c3ccccc31)c1ccc(Cl)cc12`, the melting point lay within 172 to 173 °C.

In turn, `COc1cc2oc(=O)c3c(c2cc1OC)CCN(CC(C)=O)C3` yielded a melting point of 168 to 172 °C.

In the case of `CCCCC(=O)NCCc1c(OC)ccc2ccccc12`, the melting point fell in the range of 69 to 75 °C.

As for `Clc1ccc(C2(Cl)c3ccc(Cl)cc3-c3ncncc32)cc1` (centres undefined), the melting point was 152 to 153 °C.

`C(=C\c1nc2ccccc2n1-c1nccs1)/c1ccccc1` registered a melting point of 99 to 99.5 °C.

Take `CC1CCN(C(C#N)C2(c3ccc(Cl)c(Cl)c3)CCC2)CC1` (centres undefined): the melting point lay in the range of 76 to 78 °C.

With `CC(c1cccc2c1Sc1c(O[Si](c3ccccc3)(c3ccccc3)C(C)(C)C)cccc1N2C)N1C(=O)c2ccccc2C1=O` (centres undefined), the melting point fell in the range of 182 to 184 °C.

`c1nnc2cc3c(cc2c1NCC1CCCO1)OCO3` (centres undefined) returned a melting point of 196 to 198 °C.

Consider `CC(C)(C)Sc1c(CC(C)(C)C(=O)O)n(Cc2ccc(Cl)cc2)c2ccc(OCc3cccs3)cc12`, for which the melting point lay in the range of 204 to 205 °C.

Take `COCCN1CC(c2ccccc2)NC1=O` (centres undefined): the melting point fell in the range of 82 to 83 °C.

In the case of `COC(=O)Cc1cccc(CCN(C)CCCC(C#N)(c2ccc(OC)c(OC)c2)C(C)C)c1` (centres undefined), the melting point lay within 77 to 82 °C.

The compound `COC(=O)CN(C)C(=S)c1cccc2c(SC(F)(F)F)c(OC)ccc12` displayed a melting point of 121 to 123 °C.

As for `CN(C)c1ccc(NC(=O)N(C[C@H]2CC[C@H](CN(C(=O)Nc3ccc(N(C)C)cc3)C3CCCC3)CC2)C2CCCC2)cc1`, the melting point fell in the range of 162 to 165 °C.

Consider `Cc1nc(-n2cnn(Cc3ccc(F)cc3)c2=O)sc1C#N`, for which the melting point fell in the range of 190 to 192 °C.

Compound `CCOC(=O)C1=C(C(F)(F)F)Nc2n[nH]cc2C1c1cccs1` (centres undefined) had a melting point of 157 to 161 °C.

`CCCCCCCCCCCCCCCCSCC(CNS(=O)(=O)CCCI)NC(C)=O` (centres undefined) yielded a melting point of 75 to 76 °C.

As to `COC(=O)c1cc2c(C)ccc(C)c2n1OC(C)=O`, the melting point lay within 87 to 88 °C.

Take `Cc1ccc(-c2ccc3c(c2)C=C(C(=O)NC2CCN(C(=O)OC(C)(C)C)CC2)CCO3)cc1`: the melting point lay within 205 to 208 °C.

Take `O=C(Oc1ccccc1)OC1C2=C(OCCS2)C(=O)N1c1ccc2ccc(Cl)nc2n1` (centres undefined): the melting point is 270 °C.

As to `COc1ccc(-c2[nH]nc3c2C(=O)c2c(NC(=O)CN)cccc2-3)cc1`, the melting point was over 300 °C.

Compound `Brc1ccc(-c2ccc(-c3ccc(Br)o3)cc2)o1` gave a melting point of 155 to 157 °C.

`COc1ccc2c(c1)nc(O)c1nncn12` gave a melting point of over 250 °C.

Take `CN(C)c1ncnc2[nH]c(-c3ccc(CO)cc3)cc12`: the melting point was in the range of 306 to 309 °C.

Compound `CNS(=O)(=O)CCc1ccc2[nH]cc(CCN=Cc3ccccc3)c2c1` came in with a melting point of 146 to 148 °C.

As to `NC/C(=C\F)COc1ccc(Cl)cc1Cl`, the melting point amounted to 104 °C.

Compound `CCOC(=O)c1cnc2c(c(C)nn2CC)c1Cl` came in with a melting point of 70 to 74 °C.

On to `CC(C)Oc1ccc(NC(=O)C2(C)CC2)cc1C(F)(F)F`, for which the melting point is 106 to 109 °C.

Turning to `O=C(Nc1cccc(F)c1)NN1CC=CCC1`, the melting point was 136 to 138 °C.

Compound `COc1nc(OC)nc(N(C)C(=O)NS(=O)(=O)c2ccccc2S(C)(=O)=O)n1` registered a melting point of 160 to 162 °C.

As to `CC(C)=CCOc1ccc(C(=O)C=Cc2ccco2)c(O)c1`, the melting point was in the range of 75 to 77 °C.

`O=C(Oc1ccc(C(=O)c2ccc(Cl)cc2)cc1)Oc1ccc(C(=O)c2ccc(Cl)cc2)cc1`: the melting point is 235 to 237 °C.

The compound `CCOC(=O)Cc1ccc(NC(=O)N2CCn3c(c(C(N)=O)c(C#N)c3C3CC3)C2)cc1` returned a melting point of 263 to 264 °C.

Regarding `C=C(CC(C)C(=O)O)C(=O)O` (centres undefined), the melting point lay in the range of 106 to 108 °C.

In turn, `CC(c1ccccc1)n1cncc1C(=O)O` (single isomer, unassigned; (-)) had a melting point of 155 °C.

`Cc1oc(-c2ccccc2)nc1COc1ccc(CON=C(CCC(=O)O)c2ccc(Oc3ccccc3)cc2)cc1` displayed a melting point of 131 to 132 °C.
